From patent publication US8058242B2, “Chimeric proteins with natriuretic activity” (The University of Queensland, priority 2004, dated 2011)
Positions of bridges follow the written chain, without caps; N, C: chain ends. Non-standard residues stand in square brackets, D forms with d. Residues, ends and D or L forms follow the SMILES beside them. Cha = N[C@@H](CC1CCCCC1)C(=O)O

Columns and labels:
[1] = test system: denuded aortic rings, GC A receptor; assay: Relaxation of noradrenaline constricted endothelium-denuded aortic rings (Example 11); design: species or system rat; conditions: GC-A mediated
Experimental: Male Sprague Dawley rats were killed and the descending thoracic aorta rapidly removed and flushed with physiological solution. After being cleared of adhering fat and connective tissue, 5 mm rings were mounted under 10 g resting tension, between two stainless steel hooks, in organ baths (37° C.) containing carbogenated (95% O2 and 5% CO2) physiological salt solution of the following composition (mM): NaCl, 118.4; NaHCO3, 25; glucose, 11; KCl, 4.7; MgSO4, 1.2; KH2PO4, 1.2 and CaCl2, 2.5. The lower hook was attached to a tissue holder and the upper hook to a force displacement transducer (Grass FTO3). Where indicated endothelial cells were removed by gentle rubbing of the intimal surface with a wire. To confirm the presence or absence of endothelial cells, tissues were precontracted with a sub-maximal concentration of phenylephrine (0.3 μM) and the response to acetylcholine (ACh, 10 μM) observed. Ach-induced relaxation greater than 80% of maximum indicated the presence of endothelium; whereas Ach-induced relaxation less than 10% indicated the absence of endothelium. Ring preparations under resting tension were conditioned by two contraction/relaxation cycles with 40 mM KCl, contracted by a third application of 40 mM KCl and then relaxed with different doses of the venom peptides. Responses were expressed as a percentage relaxation of the precontraction by KCl.
In addition to the peptides tested in example 3, a series of 13 analogs corresponding to the 2a, 2b and 2c grouping of peptides were examined for their ability to dilate noradrenaline constricted aortic rings. The degree of constriction was expressed as a percentage of the KCl induced constriction. The aortic rings were prepared in a manner similar to the method described in example 3. […]. In each case there were at least 3 separate aortic rings tested per peptide and all were denuded of endothelium to ensure responses were confined to the GC A receptor.

[2] = target: T1, Natriuretic Peptide Receptor-A (NPR-A) signaling in MDCK cells (Canis lupus familiaris, UniProt A0A8I3MHU3); type: cell-based, canine; conditions: stimulation of cGMP accumulation in MDCK cells; for EC50: read-out: EC50 (M) ± Standard Error
T1 sequence (A0A8I3MHU3 32-1060): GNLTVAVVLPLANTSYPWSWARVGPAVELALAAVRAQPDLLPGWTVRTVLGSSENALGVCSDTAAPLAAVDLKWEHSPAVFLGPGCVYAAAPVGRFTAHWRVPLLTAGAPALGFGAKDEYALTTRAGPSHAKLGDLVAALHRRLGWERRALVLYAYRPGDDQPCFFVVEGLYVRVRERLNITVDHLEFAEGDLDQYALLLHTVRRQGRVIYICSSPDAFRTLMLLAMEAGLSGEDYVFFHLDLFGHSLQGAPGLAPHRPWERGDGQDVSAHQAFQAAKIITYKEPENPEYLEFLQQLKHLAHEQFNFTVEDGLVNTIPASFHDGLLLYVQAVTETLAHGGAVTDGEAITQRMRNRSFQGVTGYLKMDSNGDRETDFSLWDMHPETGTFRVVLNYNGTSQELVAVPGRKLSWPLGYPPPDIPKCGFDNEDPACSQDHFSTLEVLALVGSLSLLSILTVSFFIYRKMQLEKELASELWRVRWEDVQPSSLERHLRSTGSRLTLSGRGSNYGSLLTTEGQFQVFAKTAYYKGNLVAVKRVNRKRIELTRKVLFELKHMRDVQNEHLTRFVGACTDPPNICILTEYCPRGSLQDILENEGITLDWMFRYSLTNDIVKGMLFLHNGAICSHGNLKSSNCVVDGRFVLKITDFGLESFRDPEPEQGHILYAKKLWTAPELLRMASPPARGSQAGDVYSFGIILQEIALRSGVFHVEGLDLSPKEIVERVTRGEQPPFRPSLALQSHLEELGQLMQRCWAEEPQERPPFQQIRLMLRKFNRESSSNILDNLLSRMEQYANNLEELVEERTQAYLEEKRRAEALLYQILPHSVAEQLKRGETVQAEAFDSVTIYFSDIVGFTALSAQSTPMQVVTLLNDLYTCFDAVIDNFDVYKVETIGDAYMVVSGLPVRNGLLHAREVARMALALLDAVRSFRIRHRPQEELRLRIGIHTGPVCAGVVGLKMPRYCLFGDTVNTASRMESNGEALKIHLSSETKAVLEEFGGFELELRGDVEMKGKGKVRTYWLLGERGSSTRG

[3] = test system: conscious rabbits; assay: Blood pressure and heart rate in conscious rabbits, intravenous infusion dose-response (Example 8); conditions: for recovery of MAP, in words: 2 hours after infusion; for MAP at final dose / Recovery (MAP) / Recovery Delta SED (MAP) / Treatment Effect, change of mean blood pressure during the infusion: Table 10B; for Recovery (MAP) / Recovery Delta SED (MAP): after a 2 hour recovery period; for Treatment Effect, change of mean blood pressure during the infusion: final dose, groups 2B and 2C

Structure (SMILES)	Mean relaxation SEM of denuded aortic rings expressed as % of KCl response [1]	−Log10 EC50 (pEC50) ± Standard Error [2]	EC50 [2]	recovery of MAP, in words [3]	MAP at final dose [3]	Recovery (MAP) [3]	Recovery Delta SED (MAP) [3]	Treatment Effect, change of mean blood pressure during the infusion [3]
CC[C@H](C)[C@@H]1NC(=O)[C@H](CCCNC(=N)N)NC(=O)[C@H](CC(=O)O)NC(=O)[C@H](CC(C)C)NC(=O)[C@@H]2CCCN2C(=O)[C@H](Cc2ccccc2)NC(=O)CNC(=O)[C@H](Cc2ccccc2)NC(=O)[C@@H](NC(=O)CNC(=O)[C@H](CO)NC(=O)CNC(=O)[C@H](CCC(N)=O)NC(=O)[C@@H](NC(=O)[C@H](CCSC)NC(=O)[C@H](CCCCN)NC(=O)[C@@H]2CCCN2C(=O)[C@@H](N)CO)C(C)C)CSSC[C@@H](C(=O)N[C@@H](CC(N)=O)C(=O)N[C@@H](CCCNC(=N)N)C(=O)N[C@H](C(=O)N[C@@H](CCSC)C(=O)N[C@@H](CCC(N)=O)C(=O)N[C@@H](CC(N)=O)C(=O)N2CCC[C@H]2C(=O)N2CCC[C@H]2C(=O)N[C@@H](CCCCN)C(=O)N[C@@H](CCCCN)C(=O)N[C@@H](Cc2ccccc2)C(=O)N[C@@H](CO)C(=O)NCC(=O)N[C@@H](CCC(=O)O)C(=O)O)[C@@H](C)CC)NC(=O)CNC(=O)[C@H](CC(C)C)NC(=O)CNC(=O)[C@H](CO)NC(=O)[C@H](C(C)C)NC(=O)[C@H](CO)NC(=O)CNC1=O [TNPc BTT] (H-SPKMVQGSGCFGFPLDRIGSVSGLGCNRIMQNPPKKFSGE-OH; disulfide 10-26; N-terminus assumed)	62.1 ± 6.6%	8.177 ± 0.1049	7.06e-09 M	did not recover after 2 hours	63.4 mm Hg	65.4 mm Hg	2.1 ± 1.5 mm Hg	−10.8 mm Hg
CC[C@H](C)[C@H](NC(=O)[C@H](CCCCN)NC(=O)[C@H](CO)NC(=O)[C@H](CC(=O)O)NC(=O)[C@@H](N)CO)C(=O)NCC(=O)N[C@@H](CC(N)=O)C(=O)NCC(=O)N[C@H]1CSSC[C@@H](C(=O)N[C@@H](CC(N)=O)C(=O)N[C@@H](CCCNC(=N)N)C(=O)N[C@H](C(=O)N[C@@H](CCSC)C(=O)N[C@@H](CCC(N)=O)C(=O)N[C@@H](CC(N)=O)C(=O)N2CCC[C@H]2C(=O)N2CCC[C@H]2C(=O)N[C@@H](CCCCN)C(=O)N[C@@H](CCCCN)C(=O)N[C@@H](Cc2ccccc2)C(=O)N[C@@H](CO)C(=O)NCC(=O)N[C@@H](CCC(=O)O)C(=O)O)[C@@H](C)CC)NC(=O)CNC(=O)[C@H](CC(C)C)NC(=O)CNC(=O)[C@H](CO)NC(=O)[C@H](C(C)C)NC(=O)[C@H](CO)NC(=O)CNC(=O)[C@H]([C@@H](C)CC)NC(=O)[C@H](CCCNC(=N)N)NC(=O)[C@H](CC(=O)O)NC(=O)[C@H](CC(C)C)NC(=O)[C@@H]2CCCN2C(=O)[C@H](Cc2ccccc2)NC(=O)CNC(=O)[C@H](CC2CCCCC2)NC1=O [TNPc Cha-10] (H-SDSKIGNGC[Cha]GFPLDRIGSVSGLGCNRIMQNPPKKFSGE-OH; disulfide 9-25; N-terminus assumed)	64.2 ± 4.2%	7.84	1.44e-08 M	partially recovered	67.3 mm Hg	76.5 mm Hg	9.1 ± 3.9 mm Hg	−10.8 mm Hg
